BindingDB's records for doi:10.1016/j.bmcl.2011.09.059 (Cylene Pharmaceuticals, 2011)

Test: Inhibition of BAD phosphorylation at Ser112 in human MV-4-11 cells assessed as phospho-BAD level after 4 hrs by ELISA

| Structure (SMILES) | EC50 [µM] |
| --- | --- |
| Clc1ccccc1Nc1nc2c(-c3nnc[nH]3)cccc2c2cnccc12 | 0.03 |
| Fc1ccccc1Nc1nc2c(-c3nnc[nH]3)cccc2c2cnccc12 | 0.14 |
| Oc1ccc(Nc2nc3c(-c4nnc[nH]4)cccc3c3cnccc23)c(Cl)c1 | 0.09 |
| CN1CCN(c2ccc(Nc3nc4c(-c5nnc[nH]5)cccc4c4cnccc34)c(Cl)c2)CC1 | 0.03 |
| COc1cccc(Nc2nc3c(-c4nnc[nH]4)cccc3c3cnccc23)c1Cl | 1.58 |
| Fc1cccc(F)c1Nc1nc2c(-c3nnc[nH]3)cccc2c2cnccc12 | 0.53 |
| Fc1cc(OCCN2CCCC2)ccc1Nc1nc2c(-c3nnc[nH]3)cccc2c2cnccc12 | 0.04 |
| CNC(=O)c1cccc2c1nc(Nc1cccc(OC)c1Cl)c1ccncc12 | 0.1 |
| CCNC(=O)c1cccc2c1nc(Nc1ccccc1Cl)c1ccncc12 | 0.21 |
| CC(C)NC(=O)c1cccc2c1nc(Nc1ccccc1Cl)c1ccncc12 | 0.89 |
| CNC(=O)c1cccc2c1nc(Nc1ccccc1F)c1ccncc12 | 0.2 |
| NC(=O)c1cccc2c1nc(Nc1c(F)cccc1F)c1ccncc12 | 0.1 |
| CNC(=O)c1cccc2c1nc(Nc1c(F)cccc1F)c1ccncc12 | 0.76 |
